This note sets out measurements from patent US20010016568A1, “NOVEL METAL COMPLEXES” (priority 1997, published 2001).

For one assay, the target named is T1, G-CSF receptor (Mus musculus, UniProt P40223).
T1 construct: they express endogenous G-CSF receptors; endogenous in cells; host or cells: NFS60 murine myeloid cells carrying a G-CSF-responsive luciferase reporter
T1 sequence (P40223 26-837): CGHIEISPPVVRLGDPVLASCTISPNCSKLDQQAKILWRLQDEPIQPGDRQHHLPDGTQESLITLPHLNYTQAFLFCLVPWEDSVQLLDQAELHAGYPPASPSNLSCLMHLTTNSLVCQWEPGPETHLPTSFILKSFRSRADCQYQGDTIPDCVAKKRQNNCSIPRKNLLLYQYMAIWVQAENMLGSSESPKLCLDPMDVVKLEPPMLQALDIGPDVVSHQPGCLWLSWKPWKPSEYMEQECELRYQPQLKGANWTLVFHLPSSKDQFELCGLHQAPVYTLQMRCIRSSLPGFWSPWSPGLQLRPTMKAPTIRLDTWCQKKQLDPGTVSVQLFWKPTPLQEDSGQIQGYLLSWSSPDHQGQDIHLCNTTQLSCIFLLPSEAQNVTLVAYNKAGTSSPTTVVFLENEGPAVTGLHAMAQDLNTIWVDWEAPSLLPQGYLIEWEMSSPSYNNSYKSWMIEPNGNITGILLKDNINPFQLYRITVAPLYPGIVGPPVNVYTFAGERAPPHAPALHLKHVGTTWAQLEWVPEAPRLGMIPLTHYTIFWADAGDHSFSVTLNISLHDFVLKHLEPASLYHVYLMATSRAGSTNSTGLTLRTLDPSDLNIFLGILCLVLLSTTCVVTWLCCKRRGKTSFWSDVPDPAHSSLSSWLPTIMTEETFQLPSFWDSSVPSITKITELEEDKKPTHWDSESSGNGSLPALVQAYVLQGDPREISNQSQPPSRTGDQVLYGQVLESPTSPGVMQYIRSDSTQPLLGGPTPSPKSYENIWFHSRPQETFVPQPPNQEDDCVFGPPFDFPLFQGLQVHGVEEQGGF
As to the kind of experiment: Luciferase assay in the presence of EDTA (NFS60 cells). The class given is cell-based, murine. On the procedure: FIG. 3 is an analysis of the effect of ethylenediaminetetraacetic acid (as used herein—EDTA) on the activity of Compound 1a (from Example 1) in NFS60 cells. Shown are luciferase response curves of Compound 1a at the indicated concentrations and in the presence of various concentrations of EDTA. […] The media in this assay contained a small amount (1-5 μM) of zinc(II).
FIGS. 7 and 8 show an analysis of the effect of metal chlorides on the EDTA depleted activity of Compound 1a on NFS60 cells. Shown are luciferase response curves as effected by the indicated metal chlorides. […] None of the other metals tested could overcome the inhibitory effect of EDTA.
In order to determine the requisiteness of zinc chelation of small organic molecules to agonist activity at dimeric cell-surface receptors, the above luciferase assay was performed on the G-CSF receptor in the presence of EDTA. EDTA is a strong metal chelator and had as its only effect, the removal of zinc from the ligand-receptor interaction.

The next assay concerns the target T2, G-CSF/Fc fusion protein (Mus musculus, UniProt P40223).
T2 construct: which contained the extracellular domain of the receptor presented in a dimeric form due to the Fc component
T2 sequence (P40223 26-626 limits assumed): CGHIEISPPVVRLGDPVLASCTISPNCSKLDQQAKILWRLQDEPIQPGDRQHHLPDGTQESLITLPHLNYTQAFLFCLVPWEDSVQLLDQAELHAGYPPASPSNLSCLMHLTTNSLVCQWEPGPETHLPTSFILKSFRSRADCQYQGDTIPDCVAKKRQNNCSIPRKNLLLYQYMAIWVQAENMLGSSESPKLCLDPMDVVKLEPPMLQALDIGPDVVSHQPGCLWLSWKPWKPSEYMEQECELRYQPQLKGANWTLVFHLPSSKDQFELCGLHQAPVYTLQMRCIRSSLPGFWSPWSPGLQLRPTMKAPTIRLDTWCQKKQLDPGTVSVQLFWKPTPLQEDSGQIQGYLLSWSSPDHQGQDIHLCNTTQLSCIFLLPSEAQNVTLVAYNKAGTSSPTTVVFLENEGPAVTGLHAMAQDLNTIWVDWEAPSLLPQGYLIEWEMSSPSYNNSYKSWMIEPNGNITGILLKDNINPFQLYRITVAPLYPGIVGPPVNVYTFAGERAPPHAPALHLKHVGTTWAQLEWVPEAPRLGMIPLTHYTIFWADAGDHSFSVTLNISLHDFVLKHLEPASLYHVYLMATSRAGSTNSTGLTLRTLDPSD
As to the kind of experiment: Isothermal titration microcalorimetry. It is filed as binding. As to conditions: only in the presence of zinc. On the procedure:
Zinc-mediated affinity of compounds from this invention for dimeric cell-surface receptors (specifically the G-CSF receptor) was measured by isothermal titration microcalorimetry experiments. Titration microcalorimetry detects binding as heat originating from the intrinsic bond forming enthalpy change. In this assay, the compounds were titrated first against zinc(II) alone. In a separate experiment, the compounds were then assayed in the presence of zinc and a dimeric cell-surface receptor/Fc fusion protein (a G-CSF/Fc fusion protein), which contained the extracellular domain of the receptor presented in a dimeric form due to the Fc component.
Background: Isothermal titration calorimetry measures the heat released or taken up as one component is titrated into another.

Regarding `c1ccc(C23NC(=Nc4nc5ccccc5[nH]4)NC2(c2ccccn2)NC(=Nc2nc4ccccc4[nH]2)N3)nc1` (stereo not drawn) [Compound 1a, 2,5-Bis[2-benzimidazolylimino]-3a,6a-bis(2-pyridyl)-1,2,3,3a,4,5,6,6a-octahydroimidazo[4,5-d]imidazole], the “effect of metal chlorides on the EDTA depleted luciferase activity” value at G-CSF receptor (50 micromolar EDTA, metal chlorides (zinc, manganese, iron, copper, cobalt)) was “Only zinc (II) at concentrations 0.5-10 micromolar can overcome the inhibition”. Besides, on G-CSF receptor (EDTA at 1.2 millimolar, media contained 1-5 μM zinc(II)), the “effect of EDTA on luciferase activity” value is listed as “antagonized”. Moreover, the “agonist activity in the presence of EDTA” value at G-CSF receptor (FIG. 3) was “abrogated”. For the same molecule, the “affinity for the fusion protein construct” value on G-CSF/Fc fusion protein is given as “high, submicromolar affinity”.

Turning to `Cc1ccc2nc(N=C3NC4(c5ccccn5)NC(=Nc5nc6ccccc6[nH]5)NC4(c4ccccn4)N3)[nH]c2c1.O=C(O)C(F)(F)F.O=C(O)C(F)(F)F` (stereo not drawn) [Compound 3a, 5-(2-benzimidazolylimino)-2-[(5-methyl-2-benzimidazolyl)imino]-3a,6a-bis(2-pyridyl)-1,2,3,3a,4,5,6,6a-octahydroimidazo[4,5-d]imidazole bis(trifluoroacetate) salt], the “affinity for the fusion protein construct” value at G-CSF/Fc fusion protein is listed as “high, submicromolar affinity”.

B1: recombinant G-CSF: the natural ligand (i.e. G-CSF or recombinant G-CSF) (protein, UniProt P09919 31-207, looked up)
Granulocyte …: TPLGPASSLPQSFLLKCLEQVRKIQGDGAALQEKLVSECATYKLCHPEELVLLGHSLGIPWAPLSSCPSQALQLAGCLSQLHSGLFLYQGLLQALEGISPELGPTLDTLQLDVADFATTIWQQMEELGMAPALQPTQGAMPAFASAFQRRAGGVLVASHLQSFLEVSYRVLRHLAQP
Consider B1, for which the “effect of EDTA on luciferase activity” value with G-CSF receptor (EDTA at both 1.2 and 5 millimolar) is on record as “little effect”.
